Assay results published in the supplement of paper PMC10307832.

Key:
Test in all cases: relative viability (nuclei count vs DMSO), 5 days (fraction); higher = more cells survive
JZL-184 = compound: C1CN(CCC1C(C2=CC3=C(C=C2)OCO3)(C4=CC5=C(C=C4)OCO5)O)C(=O)OC6=CC=C(C=C6)[N+](=O)[O-] [JZL-184]
How it was run: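 Five library-drug doses spaced by √10 were pinned onto vehicle-anchored 1536-well plates of lung cancer cell lines that had been kept overnight at 37 °C. Cells went 5 days without medium change, then were fixed, permeabilised and Hoechst-stained together, imaged at 4× and counted by MetaXpress. Viability is the ratio of treated-well to vehicle-well nuclei, taken as a median over plates. Plates required control CV below 25% and at least one doubling.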

JZL-184 + Bortezomib = compound: C1CN(CCC1C(C2=CC3=C(C=C2)OCO3)(C4=CC5=C(C=C4)OCO5)O)C(=O)OC6=CC=C(C=C6)[N+](=O)[O-] [JZL-184] + CC(C)C[C@H](NC(=O)[C@H](Cc1ccccc1)NC(=O)c1cnccn1)B(O)O [Bortezomib] (partner 0.002 µM)
How it was run: (§1)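 Cells from lung cancer lines were seeded into 1536-well plates and, one day later, dosed by pin tool. Treatments were either a single drug or a fixed dose of an anchor drug with five library-drug doses (not always all listed) in √10 steps. After 5 days, nuclei were stained in a one-step fixation (final 0.05% Triton X-100, 1% formaldehyde, 1 ug/ml Hoechst) and counted on 4× images, and relative viability is the treated-to-vehicle nuclei ratio, as the median of duplicate plates.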

JZL-184 + Navitoclax = compound: C1CN(CCC1C(C2=CC3=C(C=C2)OCO3)(C4=CC5=C(C=C4)OCO5)O)C(=O)OC6=CC=C(C=C6)[N+](=O)[O-] [JZL-184] + CC1(C)CCC(c2ccc(Cl)cc2)=C(CN2CCN(c3ccc(C(=O)NS(=O)(=O)c4ccc(N[C@H](CCN5CCOCC5)CSc5ccccc5)c(S(=O)(=O)C(F)(F)F)c4)cc3)CC2)C1 [Navitoclax] (partner 0.5 µM)
How it was run: as §1

JZL-184 + Foretinib = compound: C1CN(CCC1C(C2=CC3=C(C=C2)OCO3)(C4=CC5=C(C=C4)OCO5)O)C(=O)OC6=CC=C(C=C6)[N+](=O)[O-] [JZL-184] + COc1cc2c(Oc3ccc(NC(=O)C4(C(=O)Nc5ccc(F)cc5)CC4)cc3F)ccnc2cc1OCCCN1CCOCC1 [Foretinib] (partner 0.25 µM)
How it was run: as §1

JZL-184 + Lapatinib = compound: C1CN(CCC1C(C2=CC3=C(C=C2)OCO3)(C4=CC5=C(C=C4)OCO5)O)C(=O)OC6=CC=C(C=C6)[N+](=O)[O-] [JZL-184] + CS(=O)(=O)CCNCc1ccc(-c2ccc3ncnc(Nc4ccc(OCc5cccc(F)c5)c(Cl)c4)c3c2)o1 [Lapatinib] (partner 2 µM)
How it was run: as §1

JZL-184 + Pictilisib = compound: C1CN(CCC1C(C2=CC3=C(C=C2)OCO3)(C4=CC5=C(C=C4)OCO5)O)C(=O)OC6=CC=C(C=C6)[N+](=O)[O-] [JZL-184] + CS(=O)(=O)N1CCN(Cc2cc3nc(-c4cccc5[nH]ncc45)nc(N4CCOCC4)c3s2)CC1 [Pictilisib] (partner 1 µM)
How it was run: as §1

JZL-184 + Crizotinib = compound: C1CN(CCC1C(C2=CC3=C(C=C2)OCO3)(C4=CC5=C(C=C4)OCO5)O)C(=O)OC6=CC=C(C=C6)[N+](=O)[O-] [JZL-184] + C[C@@H](Oc1cc(-c2cnn(C3CCNCC3)c2)cnc1N)c1c(Cl)ccc(F)c1Cl [Crizotinib] (partner 1 µM)
How it was run: as §1

JZL-184 + Linsitinib = compound: C1CN(CCC1C(C2=CC3=C(C=C2)OCO3)(C4=CC5=C(C=C4)OCO5)O)C(=O)OC6=CC=C(C=C6)[N+](=O)[O-] [JZL-184] + C[C@]1(O)C[C@@H](c2nc(-c3ccc4ccc(-c5ccccc5)nc4c3)c3c(N)nccn32)C1 [Linsitinib] (partner 1 µM)
How it was run: as §1

JZL-184 + Alpelisib = compound: C1CN(CCC1C(C2=CC3=C(C=C2)OCO3)(C4=CC5=C(C=C4)OCO5)O)C(=O)OC6=CC=C(C=C6)[N+](=O)[O-] [JZL-184] + Cc1nc(NC(=O)N2CCC[C@H]2C(N)=O)sc1-c1ccnc(C(C)(C)C(F)(F)F)c1 [Alpelisib] (partner 2 µM)
How it was run: as §1

JZL-184 + Olaparib = compound: C1CN(CCC1C(C2=CC3=C(C=C2)OCO3)(C4=CC5=C(C=C4)OCO5)O)C(=O)OC6=CC=C(C=C6)[N+](=O)[O-] [JZL-184] + O=C(c1cc(Cc2n[nH]c(=O)c3ccccc23)ccc1F)N1CCN(C(=O)C2CC2)CC1 [Olaparib] (partner 8 µM)
How it was run: as §1

Cell Line | relative viability (JZL-184; 0.04 µM) | relative viability (JZL-184; 0.4 µM) | relative viability (JZL-184; 1.265 µM) | relative viability (JZL-184; 4 µM) | relative viability (JZL-184 + Bortezomib; first compound 0.04 µM) | relative viability (JZL-184 + Bortezomib; first compound 0.4 µM) | relative viability (JZL-184 + Bortezomib; first compound 1.265 µM) | relative viability (JZL-184 + Bortezomib; first compound 4 µM) | relative viability (JZL-184 + Navitoclax; first compound 0.04 µM) | relative viability (JZL-184 + Navitoclax; first compound 0.4 µM) | relative viability (JZL-184 + Navitoclax; first compound 1.265 µM) | relative viability (JZL-184 + Navitoclax; first compound 4 µM) | relative viability (JZL-184 + Foretinib; first compound 0.04 µM) | relative viability (JZL-184 + Foretinib; first compound 0.4 µM) | relative viability (JZL-184 + Foretinib; first compound 1.265 µM) | relative viability (JZL-184 + Foretinib; first compound 4 µM) | relative viability (JZL-184 + Lapatinib; first compound 0.04 µM) | relative viability (JZL-184 + Lapatinib; first compound 0.4 µM) | relative viability (JZL-184 + Lapatinib; first compound 1.265 µM) | relative viability (JZL-184 + Lapatinib; first compound 4 µM) | relative viability (JZL-184 + Pictilisib; first compound 0.04 µM) | relative viability (JZL-184 + Pictilisib; first compound 0.4 µM) | relative viability (JZL-184 + Pictilisib; first compound 1.265 µM) | relative viability (JZL-184 + Pictilisib; first compound 4 µM) | relative viability (JZL-184 + Crizotinib; first compound 0.04 µM) | relative viability (JZL-184 + Crizotinib; first compound 0.4 µM) | relative viability (JZL-184 + Crizotinib; first compound 1.265 µM) | relative viability (JZL-184 + Crizotinib; first compound 4 µM) | relative viability (JZL-184 + Linsitinib; first compound 0.04 µM) | relative viability (JZL-184 + Linsitinib; first compound 0.4 µM) | relative viability (JZL-184 + Linsitinib; first compound 1.265 µM) | relative viability (JZL-184 + Linsitinib; first compound 4 µM) | relative viability (JZL-184 + Alpelisib; first compound 0.04 µM) | relative viability (JZL-184 + Alpelisib; first compound 0.4 µM) | relative viability (JZL-184 + Alpelisib; first compound 1.265 µM) | relative viability (JZL-184 + Alpelisib; first compound 4 µM) | relative viability (JZL-184 + Olaparib; first compound 0.04 µM) | relative viability (JZL-184 + Olaparib; first compound 0.4 µM) | relative viability (JZL-184 + Olaparib; first compound 1.265 µM) | relative viability (JZL-184 + Olaparib; first compound 4 µM)
Calu-6 | 1.05 | 0.981 | 1.01 | 0.971 | 1.11 | 0.925 | 1 | 1.06 | 0.845 | 0.807 | 0.852 | 0.798 | 0.946 | 0.83 | 0.887 | 0.855 | 1.14 | 1.04 | 1.02 | 1.1 | 0.993 | 0.865 | 1 | 0.91 | 1.08 | 0.709 | 0.776 | 0.784 | 0.984 | 0.95 | 0.985 | 0.906 | 1.17 | 0.984 | 0.98 | 0.886 | 0.565 | 0.495 | 0.534 | 0.623
EBC-1 | 1.06 | 0.992 | 0.995 | 1.03 | 0.595 | 0.514 | 0.558 | 0.455 | 0.442 | 0.427 | 0.45 | 0.342 | 0.101 | 0.0992 | 0.0837 | 0.106 | 0.176 | 0.239 | 0.204 | 0.209 | 0.347 | 0.287 | 0.506 | 0.364 | 0.21 | 0.189 | 0.195 | 0.193 | 0.971 | 0.848 | 0.929 | 0.832 | 0.982 | 0.795 | 0.802 | 0.754 | 0.655 | 0.744 | 0.671 | 0.666
